Measured values as given in patent US20230127839A1, “COMPOUNDS AND COMPOSITIONS FOR TREATING CONDITIONS ASSOCIATED WITH STING ACTIVITY” (IFM Due, Inc., priority 2019, published 2023).

Each compound was assayed against T1, hSTING (Homo sapiens, UniProt Q86WV6, G230A/H232R/R293Q/R71H) (assay: STING reporter assay (luciferase) in THP1-Dual KO-IFNAR2 cells stimulated with 2'3'cGAMP). Details: 2'3'cGAMP 15 μM, 24 h, luciferase reporter activity.
T1 construct: host or cells: THP1-Dual KO-IFNAR2 cells
T1 sequence (Q86WV6 whole entry R71H/G230A/H232R/R293Q): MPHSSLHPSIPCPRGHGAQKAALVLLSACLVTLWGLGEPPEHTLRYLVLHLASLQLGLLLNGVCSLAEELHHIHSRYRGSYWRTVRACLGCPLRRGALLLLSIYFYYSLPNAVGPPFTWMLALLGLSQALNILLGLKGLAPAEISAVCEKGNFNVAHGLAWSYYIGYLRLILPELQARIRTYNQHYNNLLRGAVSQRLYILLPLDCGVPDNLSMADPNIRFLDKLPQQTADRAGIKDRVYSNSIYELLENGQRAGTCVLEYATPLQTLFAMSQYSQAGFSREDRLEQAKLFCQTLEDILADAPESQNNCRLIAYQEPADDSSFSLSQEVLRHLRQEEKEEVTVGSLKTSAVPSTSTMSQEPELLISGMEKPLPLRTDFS
Type: cell-based
Procedure: STING pathway activation by the compounds described herein is measured using THP1-Dual™ cells (KO-IFNAR2).
THP1-Dual™ KO-IFNAR2 Cells (obtained from invivogen) are maintained in RPMI, 10% FCS, 5 ml P/S, 2 mM L-glut, 10 mM Hepes, and 1 mM sodium pyruvate.
Compounds are spotted in empty 384 well tissue culture plates (Greiner 781182) by Echo for a final concentration of 0.0017-100 μM. Cells are plated into the TC plates at 40 μL per well, 2×10E6 cells/mL. For activation with STING ligand, 2′3′cGAMP (MW 718.38, obtained from Invivogen), is prepared in Optimem media.
The following solutions are prepared for each 1×384 plate: • Solution A: 2 mL Optimem with one of the following stimuli: • 60 uL of 10 mM 2′3′cGAMP->150 μM stock • Solution B: 2 mL Optimem with 60 μL Lipofectamine 2000->Incubate 5 min at RT
2 mL of solution A and 2 ml Solution B is mixed and incubated for 20 min at room temperature (RT). 20 uL of transfection solution (A+B) is added on top of the plated cells, with a final 2′3′cGAMP concentration of 15 μM. The plates are then centrifuged immediately at 340 g for 1 minute, after which they are incubated at 37° C., 5% CO2, >98% humidity for 24 h. Luciferase reporter activity is then measured. EC50 values are calculated by using standard methods known in the art.
Luciferase reporter assay: 10 μL of supernatant from the assay is transferred to white 384-plate with flat bottom and squared wells. One pouch of QUANTI-Luc™ Plus us dissolved in 25 mL of water. 100 μL of QLC Stabilizer per 25 mL of QUANTI-Luc™ Plus solution is added. 50 μL of QUANTI-Luc™ Plus/QLC solution per well is then added. Luminescence is measured on a Platereader (e.g., Spectramax I3X (Molecular Devices GF3637001)).
Luciferase reporter activity is then measured. EC50 values are calculated by using standard methods known in the art.

SMILES | EC50
COCCN1CCN(c2ncc(NC(=O)Nc3c[nH]c4cc(F)c(F)cc34)cc2C)CC1 [Compound 123, 1-(5,6-difluoro-1H-indol-3-yl)-3-(6-(4-(2-methoxyethyl)piperazin-1-yl)-5-methylpyridin-3-yl)urea] | 5000 to 100000 nM
O=C(Nc1cnc(N2CCN(CCC(F)(F)F)CC2)c(Cl)c1)Nc1c[nH]c2ccc(Cl)cc12 [Compound 124, 1-(5-chloro-1H-indol-3-yl)-3-(5-chloro-6-(4-(3,3,3-trifluoropropyl)piperazin-1-yl)pyridin-3-yl)urea] | 40 to 200 nM
N#Cc1cc(NC(=O)Nc2c[nH]c3cc(F)c(F)cc23)cnc1C1CC(F)(F)C1 [Compound 125, 1-(5-cyano-6-(3,3-difluorocyclobutyl)pyridin-3-yl)-3-(5,6-difluoro-1H-indol-3-yl)urea] | 200 to 1000 nM
O=C(Nc1cnc(N2CCN(CC(F)(F)F)CC2)c(Cl)c1)Nc1c[nH]c2ccc(Cl)cc12 [Compound 126, 1-(5-chloro-1H-indol-3-yl)-3-(5-chloro-6-(4-(2,2,2-trifluoroethyl)piperazin-1-yl)pyridin-3-yl)urea] | 40 to 200 nM
O=C(Nc1cnc(N2CCC(F)(F)CC2)c(CCO)c1)Nc1c[nH]c2ccc(Cl)cc12 [Compound 127, 1-(5-chloro-1H-indol-3-yl)-3-(6-(4,4-difluoropiperidin-1-yl)-5-(2-hydroxyethyl)pyridin-3-yl)urea] | 200 to 1000 nM
O=C(Nc1ccc(N2CCC(F)(F)CC2)nc1)Nc1c[nH]c2cc(Cl)c(Cl)cc12 [Compound 128, 1-(5,6-dichloro-1H-indol-3-yl)-3-(6-(4,4-difluoropiperidin-1-yl)pyridin-3-yl)urea] | 1000 to 5000 nM
Cc1cc(NC(=O)Nc2c[nH]c3ccc(Cl)cc23)cnc1N1CC2(C1)CC(F)(F)C2 [Compound 129, 1-(5-chloro-1H-indol-3-yl)-3-(6-(6,6-difluoro-2-azaspiro[3.3]heptan-2-yl)-5-methylpyridin-3-yl)urea] | 40 to 200 nM
O=C(Nc1ccc(C2CCC(F)(F)CC2)nc1)Nc1c[nH]c2ccc(Cl)cc12 [Compound 130, 1-(5-chloro-1H-indol-3-yl)-3-(6-(4,4-difluorocyclohexyl)pyridin-3-yl)urea] | 40 to 200 nM
CCc1cc(NC(=O)Nc2c[nH]c3ccc(Cl)cc23)cnc1N1CCC(F)(F)CC1 [Compound 131, 1-(5-chloro-1H-indol-3-yl)-3-(6-(4,4-difluoropiperidin-1-yl)-5-ethylpyridin-3-yl)urea] | 40 to 200 nM
CCc1cc(NC(=O)Nc2c[nH]c3ccc(F)cc23)cnc1N1CCC(F)(F)CC1 [Compound 132, 1-(6-(4,4-difluoropiperidin-1-yl)-5-ethylpyridin-3-yl)-3-(5-fluoro-1H-indol-3-yl)urea] | 40 to 200 nM
Cc1cc(NC(=O)Nc2c[nH]c3ccc(Cl)cc23)cnc1C1CCN(CC(F)(F)F)CC1 [Compound 133, 1-(5-chloro-1H-indol-3-yl)-3-(5-methyl-6-(1-(2,2,2-trifluoroethyl)piperidin-4-yl)pyridin-3-yl)urea] | 40 to 200 nM
COCCN1CCN(c2ncc(NC(=O)Nc3c[nH]c4cc(F)c(F)cc34)cc2Cl)CC1 [Compound 134, 1-(5-chloro-6-(4-(2-methoxyethyl)piperazin-1-yl)pyridin-3-yl)-3-(5,6-difluoro-1H-indol-3-yl)urea] | 1000 to 5000 nM
COCCN1CCN(c2ncc(NC(=O)Nc3c[nH]c4ccc(Cl)cc34)cc2Cl)CC1 [Compound 135, 1-(5-chloro-1H-indol-3-yl)-3-(5-chloro-6-(4-(2-methoxyethyl)piperazin-1-yl)pyridin-3-yl)urea] | 200 to 1000 nM
O=C(Nc1cnc(C2CCC(F)(F)CC2)c(CO)c1)Nc1c[nH]c2ccc(Cl)cc12 [Compound 136, 1-(5-chloro-1H-indol-3-yl)-3-(6-(4,4-difluorocyclohexyl)-5-(hydroxymethyl)pyridin-3-yl)urea] | 200 to 1000 nM
O=C(Nc1cnc(N2CC3(C2)CC(F)(F)C3)c(F)c1)Nc1c[nH]c2ccc(Cl)cc12 [Compound 137, 1-(5-chloro-1H-indol-3-yl)-3-(6-(6,6-difluoro-2-azaspiro[3.3]heptan-2-yl)-5-fluoropyridin-3-yl)urea] | 40 to 200 nM
O=C(Nc1cnc(N2CC3(C2)CC(F)(F)C3)c(Cl)c1)Nc1c[nH]c2ccc(Cl)cc12 [Compound 138, 1-(5-chloro-1H-indol-3-yl)-3-(5-chloro-6-(6,6-difluoro-2-azaspiro[3.3]heptan-2-yl)pyridin-3-yl)urea] | 40 to 200 nM
O=C(Nc1ccc(C2CC(F)(F)C2)c(F)c1)Nc1c[nH]c2ccc(Cl)cc12 [Compound 139, 1-(5-chloro-1H-indol-3-yl)-3-(4-(3,3-difluorocyclobutyl)-3-fluorophenyl)urea] | 40 to 200 nM
O=C(Nc1cnc(C2CCC(F)(F)CC2)c(Cl)c1)Nc1c[nH]c2cc(Cl)ccc12 [Compound 140, 1-(6-chloro-1H-indol-3-yl)-3-(5-chloro-6-(4,4-difluorocyclohexyl)pyridin-3-yl)urea] | 1000 to 5000 nM
O=C(Nc1cnc(C2CCC(F)(F)CC2)c(Cl)c1)Nc1c[nH]c2cc(F)ccc12 [Compound 141, 1-(5-chloro-6-(4,4-difluorocyclohexyl)pyridin-3-yl)-3-(6-fluoro-1H-indol-3-yl)urea] | 200 to 1000 nM
C[C@@H]1CN(c2ncc(NC(=O)Nc3c[nH]c4cc(F)c(F)cc34)cc2Cl)C[C@@H](C)O1 [Compound 142, 1-(5-chloro-6-((2R,6R)-2,6-dimethylmorpholino)pyridin-3-yl)-3-(5,6-difluoro-1H-indol-3-yl)urea] | 40 to 200 nM
O=C(Nc1cnc(N2CCC(F)(F)CC2)c(CCO)c1)Nc1c[nH]c2cc(F)c(F)cc12 [Compound 143, 1-(5,6-difluoro-1H-indol-3-yl)-3-(6-(4,4-difluoropiperidin-1-yl)-5-(2-hydroxyethyl)pyridin-3-yl)urea] | 200 to 1000 nM
O=C(Nc1cnc(C2CC(F)(F)C2)c(Cl)c1)Nc1c[nH]c2ccc(Cl)cc12 [Compound 144, 1-(5-chloro-1H-indol-3-yl)-3-(5-chloro-6-(3,3-difluorocyclobutyl)pyridin-3-yl)urea] | 40 to 200 nM
O=C(Nc1cnc(N2CCC3(CCCCO3)CC2)c(F)c1)Nc1c[nH]c2cc(F)ccc12 [Compound 145, 1-(6-fluoro-1H-indol-3-yl)-3-(5-fluoro-6-(1-oxa-9-azaspiro[5.5]undecan-9-yl)pyridin-3-yl)urea] | 200 to 1000 nM
C[C@@H]1CN(c2ncc(NC(=O)Nc3c[nH]c4cc(F)c(F)cc34)cc2Cl)C[C@H](C)O1 [Compound 146, 1-(5-chloro-6-((2R,6S)-2,6-dimethylmorpholino)pyridin-3-yl)-3-(5,6-difluoro-1H-indol-3-yl)urea] | 40 to 200 nM
C[C@H]1CN(c2ncc(NC(=O)Nc3c[nH]c4cc(F)c(F)cc34)cc2Cl)C[C@H](C)O1 [Compound 147, 1-(5-chloro-6-((2S,6S)-2,6-dimethylmorpholino)pyridin-3-yl)-3-(5,6-difluoro-1H-indol-3-yl)urea] | 40 to 200 nM
CO[C@H]1CCCN(c2ncc(NC(=O)Nc3c[nH]c4cc(F)c(F)cc34)cc2Cl)C1 [Compound 148, (S)-1-(5-chloro-6-(3-methoxypiperidin-1-yl)pyridin-3-yl)-3-(5,6-difluoro-1H-indol-3-yl)urea] | 40 to 200 nM
CO[C@@H]1CCCN(c2ncc(NC(=O)Nc3c[nH]c4cc(F)c(F)cc34)cc2Cl)C1 [Compound 149, (R)-1-(5-chloro-6-(3-methoxypiperidin-1-yl)pyridin-3-yl)-3-(5,6-difluoro-1H-indol-3-yl)urea] | 200 to 1000 nM
